Measurements reported in patent US20190387748A1, “COMPOSITIONS AND RELATED METHODS FOR AGRICULTURE” (priority 2017, published 2019).
Entries after “also recorded” stand apart in the source; their conditions may differ.

Legend:
[1] = system: Sitophilus zeamais weevils; test: Weevil survival monitoring; type: in vivo; conditions: adult S. zeamais mating pairs; 250 μg/ml or 2.5 mg/ml ciprofloxacin; 18 days
[2] = system: Sitophilus zeamais weevils; test: Assessment of offspring: dissection of corn kernels (F1 weevil development); type: in vivo; conditions: after 25 days
Escherichia coli DH5α = conditions: kernels soaked in 2.5 or 0.25 mg/ml ciprofloxacin; overnight
Procedure: The kernels were soaked for 1.5 hours as described herein. After soaking, kernels were air dried and assayed to determine whether the antibiotic was able to coat and penetrate the kernel. To test this, a concentrated sample of Escherichia coli DH5α in water was spread onto 5 Luria Broth (LB) plates. […] The plates were incubated overnight at 37 degrees C. and bacterial growth and/or zone(s) of inhibition were assessed the next day.
A concentrated culture of E. coli was then spread onto LB plates and one of the coated kernels was then placed onto the center of the plate. The plates were incubated overnight, and bacterial growth was assessed the next day.
The plates were incubated overnight and the next day bacterial growth was assessed.

[3] = system: Sitophilus zeamais weevils; test: Emergence of F1 weevils (fecundity); conditions: 2.5 mg/ml ciprofloxacin; till day 43
[4] = system: Acyrthosiphon pisum aphids; test: Aphid survival monitoring; type: in vivo
Excerpt: For each treatment, 33 aphids were placed onto each leaf. Artificial diet feeding systems were changed every 2-3 days throughout the experiment. Aphids were monitored daily for survival and dead aphids were removed from the deep petri dish housing the artificial feeding system when they were discovered.
(§1) Each treatment group received approximately the same number of individuals from each of the collection plant. For each treatment, 20 aphids were placed onto each leaf. Aphids were monitored daily for survival and dead aphids were removed when they were discovered. In addition, the developmental stage (1st, 2nd, 3rd, 4th, 5th instar, and 5R, representing a reproducing 5th instar) was determined daily throughout the experiment. Pictures of aphids were taken throughout the experiment to evaluate size differences between treatment groups.
(Vroma vicia faba from Johnny's Selected Seeds) in a climate-controlled incubator (16 h light/8 h dark photoperiod; 60±5% RH; 25±2° C.). Prior to being used for aphid rearing, fava bean plants were grown in potting soil at 24° C. with 16 h of light and 8 h of darkness. To limit maternal effects or health differences between plants, 5-10 adults from different plants were distributed among 10 two-week-old plants, and allowed to multiply to high density for 5-7 days. For experiments, first and second instar aphids were collected from healthy plants and divided into 2 different treatment groups: 1) negative control (leaf injected with water plus blue food coloring) and 2) leaf injected with 50 μg/ml rifampicin in water plus blue food coloring. Each treatment group received approximately the same number of individuals from each of the collection plants. For treatment, rifampicin stock solution (25 mg/ml in 100% methanol) was diluted to 50 μg/ml in water plus blue food coloring. The solution was then placed into a 1.5 ml Eppendorf tube with a fava bean stem perfused with the solutions and the opening of the tube was closed using parafilm. This feeding system was then placed into a deep petri dish (Fisher Scientific, Cat# FB0875711) and aphids were applied to the leaves of the plant. For each treatment, 74-81 aphids were placed onto each leaf. The feeding systems were changed every 2-3 days throughout the experiment. Aphids were monitored daily for survival and dead aphids were removed from the deep petri dish when they were discovered. In addition, the developmental stage (1st, 2nd, 3rd, 4th, 5th and 5R (5th that has reproduced) instar) was determined daily throughout the experiment.
For each treatment, 49-50 aphids were placed onto each leaf. The feeding systems were changed every 2-3 days throughout the experiment. Aphids were monitored daily for survival and dead aphids were removed from the deep petri dish when they were discovered.
For each treatment, 76-80 aphids were placed onto each leaf. The feeding systems were changed every 2-3 days throughout the experiment. Aphids were monitored daily for survival and dead aphids were removed from the deep petri dish when they were discovered.
For each treatment, 50-51 aphids were placed onto each leaf. The feeding systems were changed every 2-3 days throughout the experiment. Aphids were monitored daily for survival and dead aphids were removed from the deep petri dish when they were discovered.
For each treatment, 56-59 aphids were placed onto each leaf. The feeding systems were changed every 2-3 days throughout the experiment. Aphids were monitored daily for survival and dead aphids were removed from the deep petri dish when they were discovered.
For each treatment, 57-59 aphids were placed onto each leaf. The feeding systems were changed every 2-3 days throughout the experiment. Aphids were monitored daily for survival and dead aphids were removed from the deep petri dish when they were discovered.
For each treatment, 15-87 aphids were placed onto each leaf. Artificial diet feeding systems were changed every 2-3 days throughout the experiment.

Buchnera = test: qPCR of Buchnera/aphid DNA copy numbers (symbiont titer); type: in vivo, Buchnera aphidicola
Procedure: (§2) After 7 days of treatment, DNA was extracted from multiple aphids from each treatment group. Briefly, the aphid body surface was sterilized by dipping the aphid into a 6% bleach solution for approximately 5 seconds. Aphids were then rinsed in sterile water and DNA was extracted from each individual aphid using a DNA extraction kit (Qiagen, DNeasy kit) according to manufacturer's instructions. DNA concentration was measured using a nanodrop nucleic acid quantification, and Buchnera and aphid DNA copy numbers were measured by qPCR.
After 6 days of treatment, DNA was extracted from multiple aphids from each treatment group and qPCR for quantifying Buchnera levels was done as described in the previous Example.
as §2, with “8” for “7”
as §2, with “After 8” for “After 7”, “from the remaining” for “from multiple”, “aphids in” for “aphids from”
as §2, with “Briefly,” for “After 7 days of treatment, DNA was extracted from multiple aphids from each treatment group. Briefly,”
as §2, with “Briefly,” for “After 7 days of treatment, DNA was extracted from multiple aphids from each treatment group. Briefly,”
as §2, with “3” for “7”, “the remaining living” for “multiple”
as §2, with “After 5” for “After 7”, “from the remaining” for “from multiple”, “aphids in” for “aphids from”
At 5 days post-treatment, DNA was extracted from several aphids in each treatment group. Briefly, the aphid body surface was sterilized by dipping the aphid into a 6% bleach solution for approximately 5 seconds.

[5] = system: Acyrthosiphon pisum aphids; test: Aphid developmental stage monitoring; type: in vivo
Procedure: (§3) In addition, the developmental stage (1st, 2nd, 3rd, 4th, 5th instar) was determined daily throughout the experiment. Once an aphid reached the 4th instar stage, they were given their own artificial feeding system in a deep petri dish so that fecundity could be monitored once they reached adulthood.
as §1
(Vroma vicia faba from Johnny's Selected Seeds) in a climate-controlled incubator (16 h light/8 h dark photoperiod; 60±5% RH; 25±2° C.). Prior to being used for aphid rearing, fava bean plants were grown in potting soil at 24° C. with 16 h of light and 8 h of darkness. To limit maternal effects or health differences between plants, 5-10 adults from different plants were distributed among 10 two-week-old plants, and allowed to multiply to high density for 5-7 days. […] Aphids were monitored daily for survival and dead aphids were removed from the deep petri dish when they were discovered. In addition, the developmental stage (1st, 2nd, 3rd, 4th, 5th and 5R (5th that has reproduced) instar) was determined daily throughout the experiment.
In addition, the developmental stage (1st, 2nd, 3rd, 4th, 5th, and 5R (5th that has reproduced) instar) was determined daily throughout the experiment.
In addition, the developmental stage (1st, 2nd, 3rd, 4th, 5th, and 5R (5th instar aphids that are reproducing) instar) was determined daily throughout the experiment.
In addition, the developmental stage (1st, 2nd, 3rd, 4th, and 5th instar) was determined daily throughout the experiment.
as §3, with “5th, and 5R (5th that has reproduced)” for “5th”
For each treatment, 30 aphids were placed onto each leaf in triplicate. […] Aphids were monitored daily for survival and dead aphids were removed from the deep petri dish when they were discovered. In addition, the developmental stage (1st, 2nd, 3rd, 4th, 5th, and 5R (5th instar aphids that are reproducing) instar) was determined daily throughout the experiment. […]

[6] = synthetic cationic NCR peptides; cited from earlier work
[7] = system: gram-negative and gram-positive bacteria as well as fungi; conditions: cited from earlier work

What does the source list for `O=C(O)c1cn(C2CC2)c2cc(N3CCNCC3)c(F)cc2c1=O` [ciprofloxacin]?
Weevil survival [1]: all weevils remained alive for the course of the experiment; Number of offspring found in dissected corn kernels ([2]; 250 ug/ml ciprofloxacin): 13; Offspring in the larval form ([2]; 250 ug/ml ciprofloxacin): 38%; Number of offspring found in dissected corn kernels ([2]; 2.5 mg/ml ciprofloxacin): 20; Offspring in the larval form ([2]; 2.5 mg/ml ciprofloxacin): 65%; E. coli growth on plates with entire soaked corn kernels (Escherichia coli DH5α): no bacteria grew; F1 offspring emerged [3]: much less offspring that emerged

With `Cc1cc2c(C(C)C)c(O)c(O)c(C=O)c2c(O)c1-c1c(C)cc2c(C(C)C)c(O)c(O)c(C=O)c2c1O` [gossypol, gossypol acetic acid] as the compound, how does the “Time by which all aphids succumbed to treatment” value ([4]; 0.5% gossypol) read?
Its value is ≤ 4 days.

And the “Time of treatment after which aphids began dying” value ([4]; 0.5% gossypol)?
Its value is 2 days.

What about the “Fold less Buchnera/aphid DNA copies vs control” value (Buchnera; 0.25 and 0.5% of gossypol, through plants, 5 or 13 days) of the same compound?
The value was ~4 fold.

For `CC(=O)CCC(=O)O` [levulinic acid], which Aphid development ([5]; 0.03 or 0.3% levulinic acid) is on record?
Its Aphid development is “delayed aphid development”.

And the Aphid mortality ([4]; 0.03% levulinic acid, 11-day experiment)?
Its Aphid mortality is “higher mortality compared to control treated aphids, although the difference did not reach statistical significance”.

What about the Insect survival ([4]; 0.03 or 0.3% levulinic acid) of the same compound?
Its Insect survival is “decrease in insect survival”.

What about the Aphid survival ([4]; 0.3% levulinic acid, 11-day experiment) of the same compound?
Its Aphid survival is “survival was significantly less”.

And the “Fold less Buchnera/aphid DNA copies vs control” value (Buchnera; 0.03 or 0.3% levulinic acid in water, 7 days of treatment)?
Its value is ~6 fold.

And the Buchnera/aphid ratio (Buchnera; 0.03 or 0.3% levulinic acid, seven and eleven days post-treatment)?
The Buchnera/aphid ratio was “reduced endosymbiotic Buchnera”.

Which results are given for `O=C/C=C/c1ccccc1` [trans-cinnemaldehyde]?
Aphid developmental stage ([5]; LSR-1 1st and 2nd instar, 0.05%, 0.5%, 5% trans-cinnemaldehyde in water, leaf perfusion and through plants, by 3 days): delayed aphid development; also recorded: none of the aphids matured past the second instar stage; Aphid survival rate ([4]; 0.05%, 0.5%, and 5% trans-cinnemaldehyde): dose-dependent decrease in survival; also recorded: significantly lower; Symbiont titer (Buchnera DNA to aphid DNA) (Buchnera; 0.05%, 0.5%, and 5% trans-cinnemaldehyde, 3 days post-treatment): reduced endosymbiotic Buchnera; Fold less Buchnera/aphid DNA copies vs control (Buchnera; 0.5 and 5% of trans-cinnemaldehyde, 3 days): ~870 fold; Buchnera/aphid DNA copies (Buchnera; lowest concentration of trans-cinnemaldehyde (0.5%), 3 days): high ratios of Buchnera/aphid DNA copies

Which pl [6] does the source give for “NCR335: cationic nodule C-rich peptide (RQMIILRLNTTFRPLNFKMLRFWGQ)” here?
Its pl is 11.22.

What about the Antimicrobial activity [7] of the same compound?
Its Antimicrobial activity is “effective against gram-negative and gram-positive bacteria as well as fungi”.
